According to US11878970B2, “Allosteric chromenone inhibitors of phosphoinositide 3-kinase (PI3K) for the treatment of disease” (Petra Pharma Corporation, priority 2021, dated 2024):

Key:
[1] = target: T1, PI3K-α (PIK3CA) wild-type (WT), p110α/p85α complex (Homo sapiens, UniProt P42336); test: PI3K-alpha kinase (PIK3CA) biochemical activity, ADP-Glo, wild-type
T1 construct: Recombinant, catalytically active human full length PIK3KA Wild-type and H1047R mutant; 6×His (N); purchased EMD Millipore Sigma 14-602M
Method in brief: (§1)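 ADP formation measured by ADP-Glo luminescence after reaction at 27 °C to about 10% ATP turnover, using 20 uM ATP, 50 uM PIP2diC8 or soy PI lipid, HEPES pH 7.4 with MgCl2. Enzyme (1-5 nM WT or H1047R p110α/p85α) and compound preincubated 1 h first; 10-point 1:3 curves fitted four-parameter for IC50.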

[2] = target: T2, PI3K-α (PIK3CA) H1047R mutant, p110α/p85α complex (Homo sapiens, UniProt P42336, H1047R); test: PI3K-alpha kinase (PIK3CA) biochemical activity, ADP-Glo, H1047R mutant
T2 construct: Recombinant, catalytically active human full length PIK3KA Wild-type and H1047R mutant; 6×His (N); purchased EMD Millipore Sigma 14-792M
T2 sequence (P42336 whole entry H1047R): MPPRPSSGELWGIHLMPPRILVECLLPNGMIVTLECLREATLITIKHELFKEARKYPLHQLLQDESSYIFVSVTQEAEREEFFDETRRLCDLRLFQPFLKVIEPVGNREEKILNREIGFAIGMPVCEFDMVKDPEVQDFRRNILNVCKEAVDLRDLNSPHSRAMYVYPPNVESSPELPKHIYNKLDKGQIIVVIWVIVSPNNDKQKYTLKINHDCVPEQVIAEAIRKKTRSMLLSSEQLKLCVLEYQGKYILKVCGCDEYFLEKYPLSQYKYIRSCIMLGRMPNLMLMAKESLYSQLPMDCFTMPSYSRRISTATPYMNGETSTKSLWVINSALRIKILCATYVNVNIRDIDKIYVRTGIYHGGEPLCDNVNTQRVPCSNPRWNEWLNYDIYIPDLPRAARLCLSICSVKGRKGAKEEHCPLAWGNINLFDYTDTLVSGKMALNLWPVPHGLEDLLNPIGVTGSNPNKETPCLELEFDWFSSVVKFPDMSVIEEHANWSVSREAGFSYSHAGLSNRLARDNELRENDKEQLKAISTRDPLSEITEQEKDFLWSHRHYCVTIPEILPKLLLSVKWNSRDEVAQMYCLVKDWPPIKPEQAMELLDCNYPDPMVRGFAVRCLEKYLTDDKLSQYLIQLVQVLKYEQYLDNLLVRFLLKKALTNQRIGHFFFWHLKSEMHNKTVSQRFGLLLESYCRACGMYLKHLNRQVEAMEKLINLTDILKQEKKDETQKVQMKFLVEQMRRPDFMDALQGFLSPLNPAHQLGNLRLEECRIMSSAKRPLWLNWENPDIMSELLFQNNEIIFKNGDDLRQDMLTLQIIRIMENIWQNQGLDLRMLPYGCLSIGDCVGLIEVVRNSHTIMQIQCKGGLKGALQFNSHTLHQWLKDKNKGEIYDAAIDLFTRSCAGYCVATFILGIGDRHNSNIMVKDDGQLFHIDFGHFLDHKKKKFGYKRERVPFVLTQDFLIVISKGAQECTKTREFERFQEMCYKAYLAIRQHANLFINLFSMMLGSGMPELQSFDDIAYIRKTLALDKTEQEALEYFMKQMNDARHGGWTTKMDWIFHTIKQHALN
T2 sequence (P27986 whole entry partner): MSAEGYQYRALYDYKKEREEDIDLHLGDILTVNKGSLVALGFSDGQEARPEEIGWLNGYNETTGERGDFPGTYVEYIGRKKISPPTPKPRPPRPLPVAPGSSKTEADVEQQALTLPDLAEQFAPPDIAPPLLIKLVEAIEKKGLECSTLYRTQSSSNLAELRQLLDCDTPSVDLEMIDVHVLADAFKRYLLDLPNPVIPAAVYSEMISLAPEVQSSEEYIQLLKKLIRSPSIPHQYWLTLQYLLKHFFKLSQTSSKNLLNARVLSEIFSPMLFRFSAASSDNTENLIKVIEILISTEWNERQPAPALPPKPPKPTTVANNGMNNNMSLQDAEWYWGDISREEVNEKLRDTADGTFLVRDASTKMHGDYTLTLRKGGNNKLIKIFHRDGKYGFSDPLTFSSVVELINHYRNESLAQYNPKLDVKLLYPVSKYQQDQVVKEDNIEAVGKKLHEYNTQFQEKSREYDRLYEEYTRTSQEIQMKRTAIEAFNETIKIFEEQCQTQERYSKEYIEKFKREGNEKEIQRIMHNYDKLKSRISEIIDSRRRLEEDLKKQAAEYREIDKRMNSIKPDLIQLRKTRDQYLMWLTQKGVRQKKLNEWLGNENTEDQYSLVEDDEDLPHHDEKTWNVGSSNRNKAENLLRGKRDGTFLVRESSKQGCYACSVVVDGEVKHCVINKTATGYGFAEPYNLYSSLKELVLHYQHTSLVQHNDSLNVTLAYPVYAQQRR
Method in brief: as §1

[3] = PIP2diC8 lipid substrate (footnote 1)

| SMILES | IC50 ([1]; Soy PI lipid substrate) | IC50 ([2]; Soy PI lipid substrate) | IC50 [1, 3] | IC50 [2, 3] |
| --- | --- | --- | --- | --- |
| Cc1cc(-c2cc(=O)c3cc(C(F)(F)F)cc(C(C)Nc4ccc(Cl)nc4C(=O)O)c3o2)cc2cn(C)nc12 (stereo not drawn) [Example 174, 6-Chloro-3-[1-[2-(2,7-dimethylindazol-5-yl)-4-oxo-6-(trifluoromethyl)chromen-8-yl]ethylamino]pyridine-2-carboxylic acid] | > 10000 nM | < 500 nM | – | – |
| Cc1cc(C(C)Nc2ccccc2C(=O)O)c2oc(-c3cccc4c3OCO4)c(C)c(=O)c2c1 (single isomer, unassigned) [Example 92, 2-[1-[2-(1,3-Benzodioxol-4-yl)-3,6-dimethyl-4-oxo-chromen-8-yl]ethylamino]benzoic acid] | 1000 to 5000 nM | < 500 nM | – | – |
| Cc1cc(C(C)Nc2ccc(Cl)nc2C(=O)O)c2oc(-c3ccc4nn(C)cc4c3)cc(=O)c2c1 (single isomer, unassigned) [Example 83, 6-Chloro-3-[1-[6-methyl-2-(2-methylindazol-5-yl)-4-oxo-chromen-8-yl]ethylamino]pyridine-2-carboxylic acid] | 500 to 1000 nM | < 500 nM | – | – |
| Cc1cn2nc(-c3cc(=O)c4cc(C(F)(F)F)cc(C(C)Nc5ccc(Cl)nc5C(=O)O)c4o3)ccc2n1 (single isomer, unassigned) [Example 102, 6-Chloro-3-[1-[2-(2-methylimidazo[1,2-b]pyridazin-6-yl)-4-oxo-6-(trifluoromethyl)chromen-8-yl]ethylamino]pyridine-2-carboxylic acid] | 1000 to 5000 nM | < 500 nM | – | – |
| Cc1cc(C(C)Nc2ccccc2C(=O)O)c2oc(-c3ccn4c(-c5ncco5)c(C)nc4c3)cc(=O)c2c1 (single isomer, unassigned) [Example 133, 2-[1-[6-Methyl-2-(2-methyl-3-oxazol-2-yl-imidazo[1,2-a]pyridin-7-yl)-4-oxo-chromen-8-yl]ethylamino]benzoic acid] | > 10000 nM | > 10000 nM | – | – |
| Cc1cc(C(C)Nc2ccccc2C(=O)O)c2oc(-c3cc4ccncc4o3)cc(=O)c2c1 (stereo not drawn) [Example 152, 2-[1-(2-Furo[2,3-c]pyridin-2-yl-6-methyl-4-oxo-chromen-8-yl)ethylamino]benzoic acid] | 1000 to 5000 nM | < 500 nM | – | – |
| Cc1cc(C(C)Nc2ccccc2C(=O)O)c2oc(-c3cn(C)c4ccccc34)c(C)c(=O)c2c1 (single isomer, unassigned) [Example 140, 2-[1-[3,6-Dimethyl-2-(1-methylindol-3-yl)-4-oxo-chromen-8-yl]ethylamino]benzoic acid] | 1000 to 5000 nM | < 500 nM | – | – |
| Cc1cc(C(C)Nc2ccccc2C(=O)O)c2oc(-c3ccc4nc(C)cn4n3)c(C)c(=O)c2c1 (single isomer, unassigned) [Example 142, 2-[1-[3,6-Dimethyl-2-(2-methylimidazo[1,2-b]pyridazin-6-yl)-4-oxo-chromen-8-yl]ethylamino]benzoic acid] | 1000 to 5000 nM | < 500 nM | – | – |
| Cc1c(-c2ccc3nn(C)cc3c2)oc2c(C(C)Nc3ccccc3C(=O)O)cc(F)cc2c1=O (single isomer, unassigned) [Example 148, 2-[1-[6-Fluoro-3-methyl-2-(2-methylindazol-5-yl)-4-oxo-chromen-8-yl]ethylamino]benzoic acid] | 500 to 1000 nM | < 500 nM | – | – |
| Cc1cc(C(C)Nc2cccc(F)c2C(=O)O)c2oc(-c3ccc4nn(C)cc4c3)cc(=O)c2c1 (single isomer, unassigned) [Example 172, 2-Fluoro-6-[1-[6-methyl-2-(2-methylindazol-5-yl)-4-oxo-chromen-8-yl]ethylamino]benzoic acid] | < 500 nM | < 500 nM | – | – |
| CC(Nc1ccc(Cl)nc1C(=O)O)c1cc(C(F)(F)F)cc2c(=O)cc(-c3cc(Cl)c4nn(C)cc4c3)oc12 (stereo not drawn) [Example 173, 6-Chloro-3-[1-[2-(7-chloro-2-methyl-indazol-5-yl)-4-oxo-6-(trifluoromethyl)chromen-8-yl]ethylamino]pyridine-2-carboxylic acid] | > 10000 nM | < 500 nM | – | – |
| Cc1nc2ccc(-c3cc(=O)c4cc(C(F)(F)F)cc(C(C)Nc5ccc(Cl)nc5C(=O)O)c4o3)cc2s1 (single isomer, unassigned) [Example 167, 6-Chloro-3-[1-[2-(2-methyl-1,3-benzothiazol-6-yl)-4-oxo-6-(trifluoromethyl)chromen-8-yl]ethylamino]pyridine-2-carboxylic acid] | 1000 to 5000 nM | < 500 nM | – | – |
| Cc1cc(C(C)Nc2ccccc2C(=O)O)c2oc(-c3nn(C)c4ccccc34)c(C)c(=O)c2c1 (single isomer, unassigned) [Example 146, 2-[1-[3,6-Dimethyl-2-(1-methylindazol-3-yl)-4-oxo-chromen-8-yl]ethylamino]benzoic acid] | 500 to 1000 nM | < 500 nM | – | – |

Further lines, results first:

| IC50 ([1]; Soy PI lipid substrate) | IC50 ([2]; Soy PI lipid substrate) | IC50 [1, 3] | IC50 [2, 3] | SMILES |
| --- | --- | --- | --- | --- |
| 1000 to 5000 nM | < 500 nM | – | – | Cc1cc(C(C)Nc2ccccc2C(=O)O)c2oc(-c3ccc4c(cnn4C)n3)c(C)c(=O)c2c1 (single isomer, unassigned) [Example 131, 2-[1-[3,6-Dimethyl-2-(1-methylpyrazolo[4,3-b]pyridin-5-yl)-4-oxo-chromen-8-yl]ethylamino]benzoic acid] |
| > 10000 nM | > 10000 nM | – | – | Cc1cc(C(C)Nc2ccccc2C(=O)O)c2oc(-c3cnc4cn(C)nc4c3)cc(=O)c2c1 (single isomer, unassigned) [Example 43, 2-[1-[6-Methyl-2-(2-methylpyrazolo[4,3-b]pyridin-6-yl)-4-oxo-chromen-8-yl]ethylamino]benzoic acid] |
| 1000 to 5000 nM | < 500 nM | – | – | Cc1cc(C(C)Nc2ccccc2C(=O)O)c2oc(-c3ccc4c(cnn4C)n3)cc(=O)c2c1 (single isomer, unassigned) [Example 164, 2-[1-[6-Methyl-2-(1-methylpyrazolo[4,3-b]pyridin-5-yl)-4-oxo-chromen-8-yl]ethylamino]benzoic acid] |
| 1000 to 5000 nM | < 500 nM | – | – | Cc1cc(C(C)Nc2ccccc2C(=O)O)c2oc(-c3ccc4c(cnn4CC(C)(C)O)c3)cc(=O)c2c1 (single isomer, unassigned) [Example 123, 2-[1-[2-[1-(2-Hydroxy-2-methyl-propyl)indazol-5-yl]-6-methyl-4-oxo-chromen-8-yl]ethylamino]benzoic acid] |
| 1000 to 5000 nM | < 500 nM | – | – | Cc1cc(C(C)Nc2ccccc2C(=O)O)c2oc(-c3ccn4ccnc4c3)cc(=O)c2c1 (single isomer, unassigned) [Example 80, 2-[1-(2-Imidazo[1,2-a]pyridin-7-yl-6-methyl-4-oxo-chromen-8-yl)ethylamino]benzoic acid] |
| > 10000 nM | 500 to 1000 nM | – | – | Cc1cc(C(C)Nc2ccccc2C(=O)O)c2oc(-c3ccc4nnc(C(F)(F)F)n4c3)cc(=O)c2c1 (single isomer, unassigned) [Example 162, 2-[1-[6-Methyl-4-oxo-2-[3-(trifluoromethyl)-[1,2,4]triazolo[4,3-a]pyridin-6-yl]chromen-8-yl]ethylamino]benzoic acid] |
| 500 to 1000 nM | < 500 nM | – | – | Cc1cc(C(C)Nc2ccccc2C(=O)O)c2oc(-c3cn(C)c4ccccc34)cc(=O)c2c1 (single isomer, unassigned) [Example 143, 2-[1-[6-Methyl-2-(1-methylindol-3-yl)-4-oxo-chromen-8-yl]ethylamino]benzoic acid] |
| 1000 to 5000 nM | < 500 nM | – | – | Cc1cc(C(C)Nc2ccccc2C(=O)O)c2oc(-c3ccc4nc(C)cn4c3)cc(=O)c2c1 (single isomer, unassigned) [Example 17, 2-[1-[6-Methyl-2-(2-methylimidazo[1,2-a]pyridin-6-yl)-4-oxo-chromen-8-yl]ethylamino]benzoic acid] |
| 1000 to 5000 nM | < 500 nM | – | – | Cc1cc(C(C)Nc2ccccc2C(=O)O)c2oc(-c3ccc4c(c3)CC(=O)N4C)cc(=O)c2c1 (single isomer, unassigned) [Example 62, 2-[1-[6-Methyl-2-(1-methyl-2-oxo-indolin-5-yl)-4-oxo-chromen-8-yl]ethylamino]benzoic acid] |
| > 10000 nM | < 500 nM | – | – | Cc1cc(C(C)Nc2ccc(C)nc2C(=O)O)c2oc(-c3nn(C)c4ccccc34)cc(=O)c2c1 (single isomer, unassigned) [Example 176, 6-Methyl-3-[1-[6-methyl-2-(1-methylindazol-3-yl)-4-oxo-chromen-8-yl]ethylamino]pyridine-2-carboxylic acid] |
| 1000 to 5000 nM | < 500 nM | – | – | Cc1cc(C(C)Nc2ccccc2C(=O)O)c2oc(-c3ccc4cn[nH]c4n3)cc(=O)c2c1 (single isomer, unassigned) [Example 121, 2-[1-[6-Methyl-4-oxo-2-(1H-pyrazolo[3,4-b]pyridin-6-yl)chromen-8-yl]ethylamino]benzoic acid] |
| 5000 to 10000 nM | < 500 nM | – | – | Cc1cc(C(C)Nc2ccccc2C(=O)O)c2oc(-n3cnc4ccccc43)cc(=O)c2c1 (single isomer, unassigned) [Example 84, 2-[1-[2-(Benzimidazol-1-yl)-6-methyl-4-oxo-chromen-8-yl]ethylamino]benzoic acid] |
| – | – | < 500 nM | < 500 nM | Cc1cc(C(C)Nc2ccccc2C(=O)O)c2oc(-c3ccc4c(c3)OCO4)cc(=O)c2c1 (single isomer, unassigned) [Example 46, 2-[1-[2-(1,3-Benzodioxol-5-yl)-6-methyl-4-oxo-chromen-8-yl]ethylamino]benzoic acid] |
| 1000 to 5000 nM | 500 to 1000 nM | – | – | Cc1cc(C(C)Nc2ccccc2C(=O)O)c2oc(-c3ccc4nc(C)cn4n3)cc(=O)c2c1 (single isomer, unassigned) [Example 107, 2-[1-[6-Methyl-2-(2-methylimidazo[1,2-b]pyridazin-6-yl)-4-oxo-chromen-8-yl]ethylamino]benzoic acid] |
